Key:
rice = experiment: Test B flooded paddy test; type: in vivo, Oryza sativa; details: 1000 g ai/ha, scale 0 to 100 (0 no effect, 100 complete control)
How it was run: (§1)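 Formulated test chemicals went onto postemergence plants measuring 2 to 18 cm, at one to four leaves. For the paddy assay, species had reached two leaves. Scoring took place 13–15 days later by eye, relative to untreated plants, using 0 for no effect up to 100 for full control.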

wild oat = experiment: Test B postemergence herbicide test; type: in vivo, Avena fatua; details: scale 0 (no effect) to 100 (complete control)
How it was run: (§2)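 Plants grow to 1- to 4-leaf stage (2–18 cm) for postemergence spraying, or to 2-leaf stage for the paddy test. Formulated compound is applied. Greenhouse holding lasts 13–15 days. Response is scored visually relative to controls, 0 no effect to 100 complete control; a dash means no result.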

wheat = experiment: Test B postemergence herbicide test; type: in vivo, Triticum aestivum; design: key to Wheat plant response rating: 0 = no effect, 100 = complete control
How it was run: as §2

large crabgrass = experiment: Test B pre-/postemergence herbicide test; type: in vivo, Digitaria sanguinalis; details: for Plant response rating (0 to 100 scale), Crabgrass, Large: 0 is no effect, preemergence; for Crabgrass, Large plant response rating: postemergence
How it was run: (§3)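 Plants compared with untreated controls 13–15 days post-treatment and given a visual 0–100 injury score. Applications: preemergence to seeds; postemergence at 1- to 4-leaf (2–18 cm); paddy species flooded, 2-leaf stage. Vehicle non-phytotoxic, surfactant included.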

barnyardgrass [1] = experiment: Test B flooded paddy test; type: in vivo, Echinochloa crus-galli; details: 1000 g ai/ha, scale 0 to 100 (0 no effect, 100 complete control)
How it was run: as §1

corn = experiment: Test B pre-/postemergence herbicide test; type: in vivo, Zea mays; details: for Plant response rating (0 to 100 scale), Corn: 0 is no effect, preemergence; for Corn plant response rating: postemergence
How it was run: as §3

ducksalad = experiment: Test B flooded paddy test; type: in vivo, Heteranthera limosa; details: 1000 g ai/ha, scale 0 to 100 (0 no effect, 100 complete control)
How it was run: as §1

velvetleaf = experiment: Test B pre-/postemergence herbicide test; type: in vivo, Abutilon theophrasti; details: for Plant response rating (0 to 100 scale), Velvetleaf: 0 is no effect, 100 is complete control, preemergence; for Velvetleaf plant response rating: scale 0 (no effect) to 100 (complete control)
How it was run: as §3

Surinam grass = experiment: Test B pre-/postemergence herbicide test; type: in vivo, Urochloa decumbens; details: for Plant response rating (0 to 100 scale), Surinam Grass: 0 is no effect, 100 is complete control, preemergence; for Surinam Grass plant response rating: scale 0 (no effect) to 100 (complete control)
How it was run: as §3

lambsquarters = experiment: Test B pre-/postemergence herbicide test; type: in vivo, Chenopodium album; details: for Plant response rating (0 to 100 scale), Lambsquarters: 0 is no effect, 100 is complete control, preemergence; for Lambsquarters plant response rating: scale 0 (no effect) to 100 (complete control)
How it was run: as §3

pigweed = experiment: Test B pre-/postemergence herbicide test; type: in vivo, Amaranthus retroflexus; details: 125 g ai/ha; for Plant response rating (0 to 100 scale), Pigweed: 0 is no effect, 100 is complete control, preemergence; for Pigweed plant response rating: visual rating, scale 0 (no effect) to 100 (complete control), postemergence
How it was run: as §3

giant foxtail = experiment: Test B pre-/postemergence herbicide test; type: in vivo, Setaria faberi; details: for Plant response rating (0 to 100 scale), Foxtail, Giant: 0 is no effect, preemergence; for Foxtail, Giant plant response rating: postemergence
How it was run: as §3

[2] = system: small flower umbrella sedge; experiment: Test B flooded paddy test; type: in vivo, Cyperus difformis; details: 1000 g ai/ha, scale 0 to 100 (0 no effect, 100 complete control)
How it was run: as §1

blackgrass = experiment: Test B postemergence herbicide test; type: in vivo, Alopecurus myosuroides; details: postemergence
How it was run: as §1

morningglory = experiment: Test B pre-/postemergence herbicide test; type: in vivo, Ipomoea coccinea; details: for Plant response rating (0 to 100 scale), Morningglory: 0 is no effect, 100 is complete control, preemergence; for Morningglory plant response rating: scale 0 (no effect) to 100 (complete control)
How it was run: as §3

barnyardgrass [3] = experiment: Test B pre-/postemergence herbicide test; type: in vivo, Echinochloa crus-galli; details: for Plant response rating (0 to 100 scale), Barnyardgrass: 0 is no effect, preemergence; for Barnyardgrass plant response rating: postemergence
How it was run: as §3

cocklebur = experiment: Test B pre-/postemergence herbicide test; type: in vivo, Xanthium strumarium; details: for Plant response rating (0 to 100 scale), Cocklebur: 0 is no effect, preemergence; for Cocklebur plant response rating: postemergence
How it was run: as §3

[4] = 125 g ai/ha, visual rating, postemergence
[5] = 125 g ai/ha, visual rating, scale 0 (no effect) to 100 (complete control), postemergence
[6] = 500 g ai/ha, scale 0 to 100, 0 no effect, 100 complete control, preemergence
[7] = 125 g ai/ha, 100 is complete control
[8] = 125 g ai/ha, visual rating, scale 0 (no effect) to 100 (complete control)
[9] = 500 g ai/ha, scale 0 to 100, 0 is no effect, 100 is complete control

| SMILES | Rice plant response rating (rice) | Oat, Wild plant response rating (wild oat; [4]) | Wheat plant response rating (wheat; [5]) | Wheat plant response rating (wheat; [6]) | Plant response rating (0 to 100 scale), Crabgrass, Large (large crabgrass; [7]) | Crabgrass, Large plant response rating (large crabgrass; [8]) | Crabgrass, Large plant response rating (large crabgrass; [9]) | Barnyardgrass plant response rating (barnyardgrass [1]) | Plant response rating (0 to 100 scale), Corn (corn; [7]) | Corn plant response rating (corn; [8]) | Corn plant response rating (corn; [9]) | Ducksalad plant response rating (ducksalad) | Plant response rating (0 to 100 scale), Velvetleaf (velvetleaf; 125 g ai/ha) | Velvetleaf plant response rating (velvetleaf; [4]) | Plant response rating (0 to 100 scale), Surinam Grass (Surinam grass; 125 g ai/ha) | Surinam Grass plant response rating (Surinam grass; [4]) | Plant response rating (0 to 100 scale), Lambsquarters (lambsquarters; 125 g ai/ha) | Lambsquarters plant response rating (lambsquarters; [4]) | Plant response rating (0 to 100 scale), Pigweed (pigweed) | Pigweed plant response rating (pigweed) | further results |
| --- | --- | --- | --- | --- | --- | --- | --- | --- | --- | --- | --- | --- | --- | --- | --- | --- | --- | --- | --- | --- | --- |
| CCNC(=O)c1ccc(F)c(NC(=O)c2nn(C(C)(C)C)nc2CC)c1 [Compound 362] | 60 | 20 | 0 | 30 | 20 | 0 | 0 | 50 | 0 | 0 | 0 | 90 | 0 | 0 | 10 | 10 | 0 | 10 | 0 | 20 | Plant response rating (0 to 100 scale), Foxtail, Giant (giant foxtail; [7]): 10; Foxtail, Giant plant response rating (giant foxtail; [8]): 10; Foxtail, Giant plant response rating (giant foxtail; [9]): 10; Sedge, Umbrella plant response rating [2]: 90; Blackgrass plant response rating (blackgrass; [8]): 10; Blackgrass plant response rating (blackgrass; [9]): 20; Plant response rating (0 to 100 scale), Morningglory (morningglory; 125 g ai/ha): 0; Morningglory plant response rating (morningglory; [4]): 10; Plant response rating (0 to 100 scale), Barnyardgrass (barnyardgrass [3]; [7]): 10; Barnyardgrass plant response rating (barnyardgrass [3]; [8]): 0; Barnyardgrass plant response rating (barnyardgrass [3]; [9]): 0; Plant response rating (0 to 100 scale), Cocklebur (cocklebur; [7]): 0; Cocklebur plant response rating (cocklebur; [8]): 10; Cocklebur plant response rating (cocklebur; [9]): 30 |
| CCNC(=O)c1ccc(F)c(NC(=O)c2nn(C(C)(C)C)nc2C)c1 [Compound 377] | 40 | 0 | 0 | 20 | 20 | 0 | 0 | 30 | 0 | 0 | 10 | 40 | 0 | 20 | 0 | 0 | 0 | 60 | 60 | 30 | Oat, Wild plant response rating (wild oat; Postemergence, 500 g ai/ha): 0; Wheat plant response rating (wheat; Postemergence, 500 g ai/ha, scale 0 (no effect) to 100 (complete control)): 0; Velvetleaf plant response rating (velvetleaf; Postemergence, 500 g ai/ha): 40; Surinam Grass plant response rating (Surinam grass; Postemergence, 500 g ai/ha): 10; Lambsquarters plant response rating (lambsquarters; Postemergence, 500 g ai/ha): 70; Plant response rating (0 to 100 scale), Foxtail, Giant (giant foxtail; [7]): 0; Foxtail, Giant plant response rating (giant foxtail; [8]): 0; Foxtail, Giant plant response rating (giant foxtail; [9]): 10; Sedge, Umbrella plant response rating [2]: 80; Blackgrass plant response rating (blackgrass; [8]): 0; Blackgrass plant response rating (blackgrass; [9]): 0; Plant response rating (0 to 100 scale), Morningglory (morningglory; 125 g ai/ha): 0; Morningglory plant response rating (morningglory; [4]): 0; Morningglory plant response rating (morningglory; Postemergence, 500 g ai/ha): 60; Plant response rating (0 to 100 scale), Barnyardgrass (barnyardgrass [3]; [7]): 0; Barnyardgrass plant response rating (barnyardgrass [3]; [8]): 0; Barnyardgrass plant response rating (barnyardgrass [3]; [9]): 0; Plant response rating (0 to 100 scale), Cocklebur (cocklebur; [7]): 0; Cocklebur plant response rating (cocklebur; [8]): 0; Cocklebur plant response rating (cocklebur; [9]): 0 |

From patent US20060069132A1, “Azolecarboxamide herbicides” (priority 2004, published 2006)
